We go through twelve substances from the OligoGym collection.

“And” between values parts separate entries of the source, which are not always exact repeats. Identical values can stand only once. HELM strings list units from the 5' end as sugar, base in round brackets, then linkage (d deoxyribose, r ribose, m 2'-O-methyl, p phosphodiester). Methylation of C is not given here. [moe] = 2'-O-(2-methoxyethyl) (MOE); [cEt] = constrained ethyl (cEt); [sp] = phosphorothioate linkage

The data set has as its target HBV. To be noted: ASO, HepG2, 0.07 µM.
Take “RNA1{[moe](G)[sp].[cEt](T)[sp].[cEt](G)[sp].d(C)[sp].d(A)[sp].d(G)[sp].d(A)[sp].d(G)[sp].d(G)[sp].d(T)[sp].d(G)[sp].d(A)[sp].d(A)[sp].[cEt](G)[sp].[cEt](C)[sp].[moe](G)}$$$$V2.0”: the target mRNA inhibition was 67% and 70%.

With “RNA1{[moe](G)[sp].[moe](A)[sp].[moe](A)[sp].[moe](C)[sp].[moe](C)[sp].d(A)[sp].d(C)[sp].d(T)[sp].d(G)[sp].d(A)[sp].d(A)[sp].d(C)[sp].d(A)[sp].d(A)[sp].[moe](A)[sp].[moe](T)}$$$$V2.0”, the target mRNA inhibition is 34% and 36%.

As to “RNA1{[moe](G)[sp].[moe](A)[sp].[moe](A)[sp].[moe](C)[sp].[moe](T)[sp].d(G)[sp].d(G)[sp].d(A)[sp].d(G)[sp].d(C)[sp].d(C)[sp].d(A)[sp].d(C)[sp].d(C)[sp].[moe](A)[sp].[moe](G)[sp].[moe](C)}$$$$V2.0”, the target mRNA inhibition is 41% and 50%.

For “RNA1{[moe](G)[sp].[moe](A)[sp].[moe](A)[sp].[moe](C)[sp].d(C)[sp].d(A)[sp].d(C)[sp].d(T)[sp].d(G)[sp].d(A)[sp].d(A)[sp].d(C)[sp].d(A)[sp].[moe](A)[sp].[moe](A)[sp].[moe](T)}$$$$V2.0”, the target mRNA inhibition is 34% and 23%.

Regarding “RNA1{[moe](G)[sp].[moe](A)[sp].[moe](A)[sp].[moe](C)[sp].d(T)[sp].d(G)[sp].d(G)[sp].d(A)[sp].d(G)[sp].d(C)[sp].d(C)[sp].d(A)[sp].d(C)[sp].[moe](C)[sp].[moe](A)[sp].[moe](G)[sp].[moe](C)}$$$$V2.0”, the target mRNA inhibition was 69% and 49%.

Turning to “RNA1{[moe](G)[sp].[moe](A)[sp].[moe](A)[sp].d(G)[sp].d(T)[sp].d(C)[sp].d(C)[sp].d(A)[sp].d(C)[sp].d(C)[sp].d(A)[sp].d(C)[sp].[moe](G)[sp].[moe](A)[sp].[moe](G)[sp].[moe](T)[sp].[moe](C)}$$$$V2.0”, the target mRNA inhibition is 33% and 23%.

Take “RNA1{[moe](G)[sp].[moe](A)[sp].[moe](G)[sp].[moe](A)[sp].[moe](A)[sp].[moe](G)[sp].d(T)[sp].d(C)[sp].d(C)[sp].d(A)[sp].d(C)[sp].d(C)[sp].d(A)[sp].d(C)[sp].d(G)[sp].[moe](A)[sp].[moe](G)}$$$$V2.0”: the target mRNA inhibition is 27% and 23%.

Take “RNA1{[moe](G)[sp].[moe](A)[sp].[moe](G)[sp].[moe](A)[sp].d(A)[sp].d(G)[sp].d(T)[sp].d(C)[sp].d(C)[sp].d(A)[sp].d(C)[sp].d(C)[sp].d(A)[sp].[moe](C)[sp].[moe](G)[sp].[moe](A)[sp].[moe](G)}$$$$V2.0”: the target mRNA inhibition is 42% and 29%.

Take “RNA1{[moe](G)[sp].[moe](A)[sp].[moe](G)[sp].[moe](G)[sp].[moe](C)[sp].d(A)[sp].d(T)[sp].d(A)[sp].d(G)[sp].d(C)[sp].d(A)[sp].d(G)[sp].d(C)[sp].d(A)[sp].[moe](G)[sp].[moe](G)}$$$$V2.0”: the target mRNA inhibition was 44% and 39%.

As to “RNA1{[moe](G)[sp].[moe](A)[sp].[moe](G)[sp].[moe](G)[sp].[moe](T)[sp].d(G)[sp].d(A)[sp].d(A)[sp].d(G)[sp].d(C)[sp].d(G)[sp].d(A)[sp].d(A)[sp].d(G)[sp].[moe](T)[sp].[moe](G)}$$$$V2.0”, the target mRNA inhibition was 46% and 39%.

For “RNA1{[moe](G)[sp].[moe](A)[sp].[moe](G)[sp].d(G)[sp].d(C)[sp].d(A)[sp].d(T)[sp].d(A)[sp].d(G)[sp].d(C)[sp].d(A)[sp].d(G)[sp].[moe](C)[sp].[moe](A)[sp].[moe](G)[sp].[moe](G)}$$$$V2.0”, the target mRNA inhibition is 58% and 57%.

Take “RNA1{[moe](G)[sp].[moe](A)[sp].[moe](G)[sp].d(G)[sp].d(T)[sp].d(G)[sp].d(A)[sp].d(A)[sp].d(G)[sp].d(C)[sp].d(G)[sp].d(A)[sp].[moe](A)[sp].[moe](G)[sp].[moe](T)[sp].[moe](G)[sp].[moe](C)}$$$$V2.0”: the target mRNA inhibition was 81% and 71%.
